US10576147B2, “Muramyl peptide derivative compound, synthesis and uses thereof” (BHARAT BIOTECH INTERNATIONAL LIMITED, priority 2015, dated 2020)
Values after ≈ are worked out from the molar mass of the structure shown.

Tests used:
[1] = target: T1, human NOD2 (Homo sapiens, UniProt Q9HC29); assay: NOD2 specific reporter assay (SEAP); format: cell-based
T1 construct: host or cells: HEK 293 (HEK-Blue Human NOD2 reporter cells)
Procedure: Muramyl dipeptide molecules have the ability to bind to NOD2 receptors that are present on […] the immune cells, so as to stimulate immune response. NOD2 (Nucleotide oligomerization domain) receptor is an intracellular pattern recognition receptor (PRRs) recognizes muramyl dipeptide derivatives and stimulates cascade of signalling pathways to induce immune response. […] These cells were prepared by co-transfection of human NOD2 gene and codon-optimized SEAP (secreted embryonic alkaline phosphatase) reporter gene into HEK 293 cells. Upon stimulation of cells with muramyl dipeptide derivative, NFkB gets activated, which intum secrets SEAP and it was measured in cell supernatant. Experimental details of this in-vitro assay are given as example 2.1.
HEK—Blue Human NOD2 reporter cells (5×10^4/well) were plated and cultured overnight in a humidified CO2 incubator at 37° C. […] Supernatant was collected and treated with Quanti blue detection reagent at 37° C. for 15-30 min. Absorbance was read at 630 nm. Dose response curve generated by plotting concentration of adjuvant on X-axis and % response on the Y-axis is as shown in FIG. 1. To generate dose response curve, highest absorbance shown at tested concentration was taken as 100% response and the least absorbance was taken as 0% response. Effective concentration at 50% (EC50) response was determined from the dose response curve.

[2] = system: J774.2A cells; assay: Cytotoxicity assay (MTT); format: cell-based; settings: 24 hrs, read-out: IC50 (50% cell death or toxicity)
Procedure: Details of an assay are as explained in example 2.2.
J774.2A cells (2×10^4/well) were plated and incubated overnight. Next day, cells were treated with various concentrations of MDP-MN (10 fold dilutions with a concentration ranging from 0.005 mg/ml to 0.5 mg/ml & 2 mg/ml) and cultured for 24 hrs. Supernatant was discarded and cells were treated with 100 μl of MTT [3-(4,5-Dimethylthiazol-2-yl)-2,5-Diphenyltetrazolium Bromide] (5 mg/ml) and incubated for 3-4 hrs until formozan crystals were formed. Later, supernatant was discarded and crystals were dissolved with DMSO for 5-10 min. Absorbance was read at 540 nm. FIG. 2 represents cell toxicity effect of MDP-MN. X-axis represents concentration in log scale and Y-axis represents % toxicity.

[3] = system: BALB/c mice; assay: OVA-specific IgG after immunization (indirect ELISA); format: in vivo; settings: s.c. Days 1 and 15
Procedure: Male BALB/c mice were immunized subcutaneously with OVA 100 μg alone or with OVA 100 μg dissolved in saline containing analogues (7.5, 15 or 30 μg) on Days 1 and 15. Sera were collected 2 weeks after the last immunization. OVA-specific IgG antibodies in the sera were measured by an Indirect ELISA. The values are presented as log 2 titre.

[4] = system: BALB/c mice; assay: HBsAg specific total IgG endpoint titer (ELISA); format: in vivo
Procedure: Female BALB/c mice (6-8 week old, n=6/group) were vaccinated intramuscularly (i.m, at two quadriceps) on Day 0 & Day 28 with vehicle control or Hepatitis B antigen (20 μg/mouse/dose/100 μl, 50 μl per quadricep) with and without MDP-MN (10 μg or 50 or 100 μg/mouse/dose/100 μl) diluted in Phosphate buffered saline. Prior to immunization, Hepatitis B surface antigen was mixed with MDP-MN, by gentle agitation (1:1 ratio), under sterile conditions. Mice were bled and euthanized on Day 42. Blood was collected & serum was isolated to evaluate analyze antigen specific total IgG antibody titer (as in example 3.1.2) and antibody subclasses (isotypes namely IgG1 or IgG2a or IgG3, as in example 3.1.3).
Serial dilutions of individual serum samples ([…] ranging from 1:50 to 819200) were used to determine the endpoint titer of antigen specific total IgG antibody titer by ELISA. Details of assay protocol as described below.
For analysis of antigen specific antibody titer, hepatitis B surface antigen was suspended in 50 mM carbonate bicarbonate buffer, pH 9.6 and coated at a concentration (1 μg/ml, 100 μl/well) in 96 well plates and kept at 4° C. for overnight. Next day, plates were washed with washing buffer (PBST-Phosphate buffered saline, pH 7.4 with 0.05% Tween) and blocked with blocking buffer (PBS with 1% BSA) at RT for 1-2 hr. ELISA plates were washed again with wash buffer (PBS, 0.05% Tween™20) and added serially diluted (in PBS, 0.1% BSA, 0.05% Tween™20, 0.02% sodium azide) sera from hyper immunized mice and incubated at RT for 1 hr. After incubation, wells were again washed and added Goat Anti-mouse IgG HRP conjugate antibody at a dilution of 1:5000 & incubated for 1 hr at RT. Later, wells were washed, and developed with OPD (O-phenylene diamine) as a substrate for 15 min. Reaction was stopped using 2N H2SO4. Absorbance was read at 490 nm. Threshold (Mean+3SD) was established by taking the absorbance of negative control (PBS) group, followed by the reactive index (ratio of absorbance at a particular dilution & threshold), so as to determine end point titer. […]

[5] = system: mouse; assay: rPvRII specific IgG endpoint titer; format: in vivo; settings: MDP-MN 10 μg/mouse
[6] = system: Wistar rats; assay: Maximum Tolerated Dose test; format: in vivo, rat
Procedure: Wistar rats (n=6, 3M & 3F) were administered intramuscularly (i.m) with MDP-MN containing fixed adjuvant dose of 10, 50 and 100 μg/animal/200 μl in an ascending manner. Animals were observed daily for a period of 14 days for clinical signs & mortality. Body weight was measured daily. Food and water consumed by animals were also monitored daily for any abnormalities & Food and water intake per animal was also calculated. Body temperature was measured for every 4 hours upto 24 hrs, later once in daily upto 7 days and then followed by alternate day upto day 14. Rats were sacrificed on day 14 and organs/tissues such as site of injection, spleen, thymus, brain, lungs, Heart, liver, Kidney were collected and done macroscopic examination. […] It indicates rats are tolerable even at high dose (100 μg/animal). Blood was collected between 24-36 hrs were tested for CRP levels, after the injection. […] Moreover, absence of pro-inflammatory cytokines, CRP levels indicates, MDP-MN is not pyrogenic.

T1 sequence (Q9HC29 whole entry): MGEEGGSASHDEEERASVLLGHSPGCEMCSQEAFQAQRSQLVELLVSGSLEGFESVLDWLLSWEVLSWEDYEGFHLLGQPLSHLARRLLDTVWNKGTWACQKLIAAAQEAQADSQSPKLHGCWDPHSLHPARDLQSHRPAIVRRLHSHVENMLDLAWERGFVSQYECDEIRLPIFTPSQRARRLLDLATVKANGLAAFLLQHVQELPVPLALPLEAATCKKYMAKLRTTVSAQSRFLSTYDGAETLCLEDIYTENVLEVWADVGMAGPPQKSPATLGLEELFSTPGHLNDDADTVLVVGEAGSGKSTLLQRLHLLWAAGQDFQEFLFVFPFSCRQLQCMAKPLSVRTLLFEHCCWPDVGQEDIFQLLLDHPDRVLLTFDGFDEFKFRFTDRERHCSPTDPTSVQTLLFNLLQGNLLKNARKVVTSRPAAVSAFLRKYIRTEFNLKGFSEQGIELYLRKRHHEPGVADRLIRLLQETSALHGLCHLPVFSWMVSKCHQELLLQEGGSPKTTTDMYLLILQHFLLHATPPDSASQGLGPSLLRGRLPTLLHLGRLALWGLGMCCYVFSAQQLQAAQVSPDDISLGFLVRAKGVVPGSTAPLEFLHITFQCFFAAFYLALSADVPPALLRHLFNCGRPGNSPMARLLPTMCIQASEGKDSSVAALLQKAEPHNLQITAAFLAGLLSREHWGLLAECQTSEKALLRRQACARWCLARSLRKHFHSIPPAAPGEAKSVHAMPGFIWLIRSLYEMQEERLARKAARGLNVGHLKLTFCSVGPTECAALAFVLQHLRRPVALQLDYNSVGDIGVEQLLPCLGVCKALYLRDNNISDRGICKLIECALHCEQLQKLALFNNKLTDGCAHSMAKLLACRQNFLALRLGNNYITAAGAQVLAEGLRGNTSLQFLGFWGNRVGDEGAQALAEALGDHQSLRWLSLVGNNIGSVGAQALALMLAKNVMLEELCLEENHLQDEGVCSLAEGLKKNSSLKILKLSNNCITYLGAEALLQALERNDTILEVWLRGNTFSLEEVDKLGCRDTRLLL

SMILES: C[C@H](NC(=O)[C@@H](C)O[C@H]1[C@H](O)[C@@H](CO)OC(O)[C@@H]1NC(=O)[C@H](O)CO)C(=O)N[C@H](CCC(=O)O)C(N)=O (stereo partly drawn) [MDP-MN, (4R)-5-amino-4-((2S)-2-((2R)-2-(((3R,4R,5S,6R)-3-((2,3-dihydroxypropanamido))-2,5-dihydroxy-6-(hydroxymethyl)tetrahydro-2H-pyran-4-yl)oxy)propanamido)propanamido)-5-oxopentanoic acid]
- EC50 ([1]; HEK-Blue Human NOD2 reporter cells, SEAP absorbance 630 nm, 24-72 hrs, read-out: EC50 (half maximal response) (converted)): 2.49 µM
- % response ([1]; at 0.01 μg/ml, normalized to least absorbance): 0%
- % response ([1]; at 10 μg/ml (plateau), normalized to highest absorbance): 100%
- IC50 [2]: 99.2 µg/mL (≈ 184 µM)
- Log(2) IgG Antibody Titre ([3]; adjuvant 7.5 μg per mouse with OVA 100 μg): nearly equal antibody titer
- Log(2) IgG Antibody Titre ([3]; adjuvant 15 μg per mouse with OVA 100 μg): highest serum IgG responses
- Log(2) IgG Antibody Titre ([3]; adjuvant 30 μg per mouse with OVA 100 μg): highest serum IgG responses
- increase of antibody titer vs HBsAg alone ([4]; MDP-MN 50 μg/mouse): 4 fold
- increase of antibody titer vs HBsAg alone ([4]; MDP-MN 100 μg/mouse): 8 fold
- increase of humoral response (TH2) ([4]; mice vaccinated with Hepatitis B surface antigen in presence of MDP-MN, dose dependent): 4-8 fold
- increase of antibody titer vs rPvRII alone [5]: 4 fold
- tolerated dose ([6]; Wistar rats, i.m., 14 days observation, highest dose tested): 100 μg/animal
- CRP levels ([6]; blood 24-36 hrs after injection, high dose (100 μg/animal), normal in rats 200-550 μg/ml): normal
- macroscopic examination of organs/tissues ([6]; day 14, site of injection, spleen, thymus, brain, lungs, heart, liver, kidney): No significant lesions or abnormalities
- clinical signs ([6]; even at tested high dose (100 μg/animal), 14 days): no significant clinical signs
- weight gain ([6]; high dose (100 μg/animal), compared to untreated animals): weight gain is less
- mortality ([6]; i.m. 10, 50 and 100 μg/animal, 14 days): no mortality
- tolerated dose ([6]; rat, Maximum Tolerated Dose test): ≤ 100 μg/rat
- pyrogenicity (conclusion from cytokines and CRP levels) ([6]; rat, in vivo): not pyrogenic
- body temperature ([6]; upto 14 days): no temperature raise
